Results reported in US9382276B2, “Water-soluble O-carbonyl phosphoramidate prodrugs for therapeutic administration” (MicuRx Pharmaceuticals, Inc., priority 2014, dated 2016).
In brackets after ≈: the same amount, converted by molar mass.

What was measured:
[1] = pH range of about 3-9
in vivo = details: rat, iv, 10 mg/kg
physchem = details: water or conventional aqueous solutions, thermodynamic from solid
[2] = tested on: Staphylococcus aureus strain SAU1018; assay: mouse peritonitis infection model (survival, ED50); format: in vivo; details: parent drug control in same test, in 20% aqueous beta-hydroxypropylcyclodextrin (HPCD) formulation, read-out: ED50 (effective dose for survival of 50% of animals)

O=C1C=CN(c2c(F)cc(N3C[C@H](CNc4ccon4)OC3=O)c(F)c2F)CC1 [MRX-I]
pH dependence of solubility in water [1]: virtually pH-independent
AUC (in vivo): ~25400 ng·h/mL
solubility (physchem): ~250 µg/mL (≈ 612 µM)
ED50 [2]: 10 mg/kg
